From patent publication US20240409558A1, “IRREVERSIBLE INHIBITORS OF KRAS” (BIOMEA FUSION, INC., priority 2021, published 2024)

Test system: human KRAS G12C mutated cell line MIA PaCa-2
Experiment: Inhibition of proliferation of MIA PaCa-2 cells (CellTiter-Glo, 7 day)
Type: cell-based
Settings: 168 h, Table 4, 7 day, mean, read-out: MIA PaCa-2 IC50 (μM) 7 day Mean
Summary of the method: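 MIA PaCa-2 cells (RPMI-1640, 10% FBS) seeded at about 1000 cells/well; eight compound concentrations in duplicate added 2 h later, with media and compound refreshed on day 3. ATP-luminescence viability read on day 7 by CellTiter-Glo; % inhibition relative to 0.2% DMSO control.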

`F[C@H]1CN2CCC[C@@]2(COc2cc(N3C[C@H]4C[C@@H]3CN4)c3ncc(-c4cccc5cccc(Cl)c45)cc3n2)C1` [Compound 422, 7-(8-chloro-1-naphthyl)-4-[(1R,4R)-2,5-diazabicyclo[2.2.1]heptan-2-y1]-2-[[(2R,8S)-2-fluoro-1,2,3,5,6,7-hexahydropyrrolizin-8-yl]methoxy]-1,5-naphthyridine] and `F[C@H]1CN2CCC[C@@]2(COc2nc(N3CC4CCC(C3)N4)c3ccc(-c4cccc5cccc(Cl)c45)cc3n2)C1` [Compound 423] cannot be ordered by IC50: over 1 µM for the first, over 1 µM for the second.

Compared with `Oc1cc(Cl)c(C2CC2)c(-c2ccc3c(N4C[C@H]5C[C@@H]4CN5)nc(OC[C@@]45CCCN4C[C@H](F)C5)nc3c2F)c1` [Compound 424, 3-chloro-4-cyclopropyl-5-[4-[(1R,4R)-2,5-diazabicyclo[2.2.1]heptan-2-y1]-8-fluoro-2-[[(2R,8S)-2-fluoro-1,2,3,5,6,7-hexahydropyrrolizin-8-yl]methoxy]quinazolin-7-yl]phenol], `Oc1cc(Cl)c(C2CC2)c(-c2ccc3c(C4CCNCC4)nc(OC[C@@]45CCCN4C[C@H](F)C5)nc3c2F)c1` [Compound 430, 3-chloro-4-cyclopropyl-5-[8-fluoro-2-[[(2R,8S)-2-fluoro-1,2,3,5,6,7-hexahydropyrrolizin-8-yl]methoxy]-4-(4-piperidyl)quinazolin-7-yl]phenol] is lower in IC50: over 1 µM for the first, 0.983 µM for the second.

Going from `Oc1cc(Cl)c(C2CC2)c(-c2ccc3c(N4CCNCC45CC5)nc(OC[C@@]45CCCN4C[C@H](F)C5)nc3c2F)c1` [Compound 425, 3-chloro-4-cyclopropyl-5-[4-(4,7-diazaspiro[2.5]octan-4-yl)-8-fluoro-2-[[(2R,8S)-2-fluoro-1,2,3,5,6,7-hexahydropyrrolizin-8-yl]methoxy]quinazolin-7-y1]phenol] to `Oc1cc(Cl)c(C2CC2)c(-c2ncc3c(N4CCC5(CC4)CN5)nc(OC[C@@]45CCCN4C[C@H](F)C5)nc3c2F)c1` [Compound 438, 3-chloro-4-cyclopropyl-5-[4-(1,6-diazaspiro[2.5]octan-6-yl)-8-fluoro-2-[[(2R,8S)-2-fluoro-1,2,3,5,6,7-hexahydropyrrolizin-8-yl]methoxy]pyrido[4,3-d]pyrimidin-7-yl]phenol], the IC50 falls from 0.607 µM to 0.229 µM (2.7-fold). The second is the more potent here.

`C[C@@H]1CNCCN1c1nc(OC[C@@]23CCCN2C[C@H](F)C3)nc2cc(-c3c(O)cccc3C3CC3)c(F)cc12` [Compound 426] and `Oc1cc(Cl)c(C2CC2)c(-c2ccc3c(N4CC5CCC(C4)N5)nc(OC[C@@]45CCCN4C[C@H](F)C5)nc3c2)c1` [Compound 428, 3-chloro-4-cyclopropyl-5-[4-(3,8-diazabicyclo[3.2.1]octan-3-y1)-2-[[(2R,8S)-2-fluoro-1,2,3,5,6,7-hexahydropyrrolizin-8-yl]methoxy]quinazolin-7-yl]phenol] cannot be ordered by IC50: over 1 µM for the first, over 1 µM for the second.

`Cn1ccnc1-c1c(F)cccc1-c1cnc2c(N3CC4CCC(C3)N4)nc(OC[C@@]34CCCN3C[C@H](F)C4)nc2c1` [Compound 427, 4-(3,8-diazabicyclo[3.2.1]octan-3-yl)-2-[[(2R,8S)-2-fluoro-1,2,3,5,6,7-hexahydropyrrolizin-8-yl]methoxy]-7-[3-fluoro-2-(1-methylimidazol-2-yl)phenyl]pyrido[3,2-d]pyrimidine] and `OC1Cc2cccc(Cl)c2N(c2ncc3c(N4CC5CCC(C4)N5)nc(OC[C@@]45CCCN4C[C@H](F)C5)nc3c2F)C1` (stereo partly shown) [Compound 432] cannot be ordered by IC50: over 1 µM for the first, over 1 µM for the second.

`Oc1cc(Cl)c(C2CC2)c(-c2ccc3c(N4CC5CCC(C4)N5)cc(OC[C@@]45CCCN4C[C@H](F)C5)nc3c2F)c1` [Compound 429, 3-chloro-4-cyclopropyl-5-[4-(3,8-diazabicyclo[3.2.1]octan-3-yl)-8-fluoro-2-[[(2R,8S)-2-fluoro-1,2,3,5,6,7-hexahydropyrrolizin-8-y1]methoxy]-7-quinolyl]phenol] and `Oc1cc(Cl)c(C2CC2)c(-c2ncc3c(C4CCNCC4)nc(OC[C@@]45CCCN4C[C@H](F)C5)nc3c2F)c1` [Compound 433] cannot be ordered by IC50: over 1 µM for the first, over 1 µM for the second.

`CC(C)C(O)CN1C2CCC1CN(c1nc(OC[C@@]34CCCN3C[C@H](F)C4)nc3c(F)c(-c4cc(O)cc(Cl)c4C4CC4)ncc13)C2` (stereo partly shown) [Compound 434] and `Oc1cc(Cl)c(C2CC2)c(-c2ncc3c(N4CCC5(CC4)CO5)nc(OC[C@@]45CCCN4C[C@H](F)C5)nc3c2F)c1` [Compound 437, 3-chloro-4-cyclopropyl-5-[8-fluoro-2-[[(2R,8S)-2-fluoro-1,2,3,5,6,7-hexahydropyrrolizin-8-yl]methoxy]-4-(1-oxa-6-azaspiro[2.5]octan-6-yl)pyrido[4,3-d]pyrimidin-7-yl]phenol] cannot be ordered by IC50: over 1 µM for the first, over 1 µM for the second.

`Oc1cc(-c2ncc3c(C4CCNCC4)nc(OC[C@@]45CCCN4C[C@H](F)C5)nc3c2F)c2c(F)c(F)ccc2c1` [Compound 435, 5,6-difluoro-4-[8-fluoro-2-[[(2R,8S)-2-fluoro-1,2,3,5,6,7-hexahydropyrrolizin-8-yl]methoxy]-4-(4-piperidyl)pyrido[4,3-d]pyrimidin-7-yl]naphthalen-2-ol] and `C[C@H]1CC(c2nc(OC[C@@]34CCCN3C[C@H](F)C4)nc3c(F)c(-c4cc(O)cc5ccc(F)c(F)c45)ncc23)CCN1` (stereo partly drawn) [Compound 439, 5,6-difluoro-4-[8-fluoro-2-[[(2R,8S)-2-fluoro-1,2,3,5,6,7-hexahydropyrrolizin-8-yl]methoxy]-4-[(2S)-2-methyl-4-piperidyl]pyrido[4,3-d]pyrimidin-7-yl]naphthalen-2-ol] cannot be ordered by IC50: over 1 µM for the first, over 1 µM for the second.

`C=C1CCN(c2nc(OC[C@@]34CCCN3C[C@H](F)C4)nc3c(F)c(-c4cc(O)cc(Cl)c4C4CC4)ncc23)CC1` [Compound 436, 3-chloro-4-cyclopropyl-5-[8-fluoro-2-[[(2R,8S)-2-fluoro-1,2,3,5,6,7-hexahydropyrrolizin-8-yl]methoxy]-4-(4-methylene-1-piperidyl)pyrido[4,3-d]pyrimidin-7-yl]phenol] and `CC1(c2nc(OC[C@@]34CCCN3C[C@H](F)C4)nc3c(F)c(-c4cc(O)cc(Cl)c4C4CC4)ncc23)CCNCC1` [Compound 442, 3-chloro-4-cyclopropyl-5-[8-fluoro-2-[[(2R,8S)-2-fluoro-1,2,3,5,6,7-hexahydropyrrolizin-8-yl]methoxy]-4-(4-methyl-4-piperidyl)pyrido[4,3-d]pyrimidin-7-yl]phenol] cannot be ordered by IC50: over 1 µM for the first, 8.87 µM for the second.

`C[C@@H]1CC(c2nc(OC[C@@]34CCCN3C[C@H](F)C4)nc3c(F)c(-c4cc(O)cc5ccc(F)c(F)c45)ncc23)CCN1` (stereo partly drawn) [Compound 440, 5,6-difluoro-4-[8-fluoro-2-[[(2R,8S)-2-fluoro-1,2,3,5,6,7-hexahydropyrrolizin-8-yl]methoxy]-4-[(2R)-2-methyl-4-piperidyl]pyrido[4,3-d]pyrimidin-7-yl]naphthalen-2-ol] and `Oc1cc(-c2ncc3c(C4CC5CCC(C4)N5)nc(OC[C@@]45CCCN4C[C@H](F)C5)nc3c2F)c2c(F)c(F)ccc2c1` (stereo partly drawn) [Compound 443, 4-[4-(8-azabicyclo[3.2.1]octan-3-yl)-8-fluoro-2-[[(2R,8S)-2-fluoro-1,2,3,5,6,7-hexahydropyrrolizin-8-yl]methoxy]pyrido[4,3-d]pyrimidin-7-y1]-5,6-difluoro-naphthalen-2-ol] cannot be ordered by IC50: 3.65 µM for the first, over 1 µM for the second.

`CCC1(c2nc(OC[C@@]34CCCN3C[C@H](F)C4)nc3c(F)c(-c4cc(O)cc(Cl)c4C4CC4)ncc23)CCNCC1` [Compound 441] and `CC1(c2nc(OC[C@@]34CCCN3C[C@H](F)C4)nc3c(F)c(-c4cc(O)cc5ccc(F)c(F)c45)ncc23)CCNCC1` [Compound 444] cannot be ordered by IC50: over 1 µM for the first, 6.74 µM for the second.
